Experimental data published in ChEMBL document CHEMBL5046301, “pH-Responsive Antimicrobial Peptide with Selective Killing Activity for Bacterial Abscess Therapy” (J Med Chem, 2022).
Activity calls are given as the source filed them. No cut-off for these calls is given here.

Experiments:
[1] = Cytotoxicity against mouse RAW264.7 cells assessed as inhibition of cell growth at pH 6.5 measured after 24 hrs by MTT assay; type: toxicity, cell-based
Cell membrane [2] = experiment: Induction of outer membrane permeabilization in Pseudomonas aeruginosa ATCC 27853 assessed as pH responsive ability by measuring fold increase in NPN uptake at 64 uM by NPN-dye based fluorescence analysis relative to control; type: subcellular
Staphylococcus aureus [3] = experiment: Antibacterial activity against methicillin-resistant Staphylococcus aureus ATCC 43300 assessed as inhibition of bacterial growth at pH 7.4 incubated for 24 hrs by NCCLS protocol based method; type: functional
Staphylococcus aureus [4] = experiment: Antibacterial activity against Staphylococcus aureus ATCC 25923 assessed as inhibition of bacterial growth at pH 7.4 incubated for 24 hrs by NCCLS protocol based method; type: functional
[5] = test system: Staphylococcus epidermidis; experiment: Antibacterial activity against Staphylococcus epidermidis ATCC 12228 assessed as inhibition of bacterial growth at pH 7.4 incubated for 24 hrs by NCCLS protocol based method; type: functional
Pseudomonas aeruginosa [6] = experiment: Antibacterial activity against Pseudomonas aeruginosa ATCC 27853 assessed as inhibition of bacterial growth at pH 7.4 incubated for 24 hrs by NCCLS protocol based method; type: functional
Staphylococcus aureus [7] = experiment: Antibacterial activity against Staphylococcus aureus ATCC 29213 assessed as inhibition of bacterial growth at pH 7.4 incubated for 24 hrs by NCCLS protocol based method; type: functional
[8] = test system: Staphylococcus epidermidis; experiment: Antibacterial activity against Staphylococcus epidermidis ATCC 12228 assessed as inhibition of bacterial growth at pH 6.5 incubated for 24 hrs by NCCLS protocol based method; type: functional
Cell membrane [9] = experiment: Induction of outer membrane permeabilization in Pseudomonas aeruginosa ATCC 27853 assessed as increase in NPN uptake by NPN-dye based fluorescence analysis; type: subcellular; details: dose 1-64 µM
[10] = Ratio of MHC for hemolytic activity against human RBC assessed as hemoglobin release at pH 6.5 to MHC for hemolytic activity against human RBC assessed as hemoglobin release at pH 7.4; type: toxicity, cell-based, Erythrocyte; details: human red blood cells (RBC)
Salmonella typhimurium [11] = experiment: Antibacterial activity against Salmonella typhimurium ATCC 14028 assessed as inhibition of bacterial growth at pH 7.4 incubated for 24 hrs by NCCLS protocol based method; type: functional, Salmonella enterica subsp. enterica serovar Typhimurium; details: Salmonella enterica
Salmonella typhimurium [12] = experiment: Antibacterial activity against Salmonella typhimurium ATCC 14028 assessed as inhibition of bacterial growth at pH 6.5 incubated for 24 hrs by NCCLS protocol based method; type: functional, Salmonella enterica subsp. enterica serovar Typhimurium; details: Salmonella enterica
Cell membrane [13] = experiment: Induction of cytoplasmic membrane depolarization in Pseudomonas aeruginosa ATCC 27853 assessed as increase in fluorescence intensity at acidic and alkaline pH by DiSC3-5 dye based fluorescence assay; type: subcellular; details: TDE = time-dependent effect
Escherichia coli [14] = experiment: Antibacterial activity against Escherichia coli ATCC 25922 assessed as inhibition of bacterial growth at pH 7.4 incubated for 24 hrs by NCCLS protocol based method; type: functional
Salmonella typhimurium [15] = experiment: Antibacterial activity against Salmonella enterica subsp. enterica serovar Typhimurium C77-31 assessed as inhibition of bacterial growth at pH 7.4 incubated for 24 hrs by NCCLS protocol based method; type: functional
Staphylococcus aureus [16] = experiment: Antibacterial activity against Staphylococcus aureus ATCC 25923 assessed as inhibition of bacterial growth at pH 6.5 incubated for 24 hrs by NCCLS protocol based method; type: functional
Staphylococcus aureus [17] = experiment: Antibacterial activity against methicillin-resistant Staphylococcus aureus ATCC 43300 assessed as inhibition of bacterial growth at pH 6.5 incubated for 24 hrs by NCCLS protocol based method; type: functional
[18] = Hemolytic activity in human RBC assessed as hemoglobin release at pH 7.4 incubated for 1 hr; type: toxicity, cell-based; details: erythrocyte, pH 7.4, 1 h
Staphylococcus aureus [19] = experiment: Antibacterial activity against Staphylococcus aureus ATCC 29213 assessed as inhibition of bacterial growth at pH 6.5 incubated for 24 hrs by NCCLS protocol based method; type: functional
Lipopolysaccharide (LPS) [20] = experiment: Displacement of BODIPY-TR-cadaverin from Pseudomonas aeruginosa ATCC 27316 Lipopolysaccharide at 1 to 64 uM at pH 7.4 incubated for 1 hr by fluorescence based analysis; details: dose 1-64 µM
[21] = Hemolytic activity against human RBC assessed as hemoglobin release at pH 6.5 incubated for 1 hrs; type: toxicity, cell-based; details: erythrocyte, pH 6.5, 1 h
[22] = Cytotoxicity against mouse RAW264.7 cells assessed as inhibition of cell growth at pH 7.4 measured after 24 hrs by MTT assay; type: toxicity, cell-based
Escherichia coli [23] = experiment: Antibacterial activity against Escherichia coli ATCC 25922 assessed as inhibition of bacterial growth at pH 6.5 incubated for 24 hrs by NCCLS protocol based method; type: functional
Lipopolysaccharide (LPS) [24] = experiment: Displacement of BODIPY-TR-cadaverin from Pseudomonas aeruginosa ATCC 27316 Lipopolysaccharide at 1 to 64 uM at pH 6.5 incubated for 1 hr by fluorescence based analysis; details: dose 1-64 µM
Salmonella typhimurium [25] = experiment: Antibacterial activity against Salmonella enterica subsp. enterica serovar Typhimurium C77-31 assessed as inhibition of bacterial growth at pH 6.5 incubated for 24 hrs by NCCLS protocol based method; type: functional
Pseudomonas aeruginosa [26] = experiment: Antibacterial activity against Pseudomonas aeruginosa ATCC 27853 assessed as inhibition of bacterial growth at pH 6.5 incubated for 24 hrs by NCCLS protocol based method; type: functional
Pseudomonas aeruginosa [27] = experiment: Antimicrobial activity against Pseudomonas aeruginosa ATCC 27853 assessed as reduction in bacterial growth at pH 6.5 in presence of NaCl; type: functional
Pseudomonas aeruginosa [28] = experiment: Antimicrobial activity against Pseudomonas aeruginosa ATCC 27853 assessed as reduction in bacterial growth at pH 7.4 in presence of 50% serum; type: functional, organism-based
Pseudomonas aeruginosa [29] = experiment: Antimicrobial activity against Pseudomonas aeruginosa ATCC 27853 assessed as reduction in bacterial growth at pH 7.4 in presence of CaCl2; type: functional, organism-based
Pseudomonas aeruginosa [30] = experiment: Antimicrobial activity against Pseudomonas aeruginosa ATCC 27853 assessed as reduction in bacterial growth at pH 7.4 in presence of NaCl; type: functional, organism-based
Pseudomonas aeruginosa [31] = experiment: Antimicrobial activity against Pseudomonas aeruginosa ATCC 27853 assessed as reduction in bacterial growth at pH 6.5 in presence of 50% serum; type: functional, organism-based

For H-FLFKLIPKVIKGLVKAIRK-NH2, the IC50 at 24 h [1] was 1910 nM, the Activity (Cell membrane [2]) was “inactive” and the MIC (Staphylococcus aureus [3]) was 2 µM. For the same compound, the MIC (Staphylococcus aureus [4]) was 2 µM, the MIC [5] was 2 µM and the MIC (Pseudomonas aeruginosa [6]) was 4 µM. For the same compound, the MIC (Staphylococcus aureus [7]) was 2 µM, the MIC [8] was 2 µM and the Activity (Cell membrane [9]) was “Dose-Dependent Effect”. For the same compound, the selectivity ratio [10] was 0.13, the MIC (Salmonella typhimurium [11]) was 2 µM and the MIC (Salmonella typhimurium [12]) was 2 µM. For the same compound, the Activity (Cell membrane [13]) was “Tde”, the MIC (Escherichia coli [14]) was 2 µM and the MIC (Salmonella typhimurium [15]) was 4 µM. For the same compound, the MIC (Staphylococcus aureus [16]) was 2 µM, the MIC (Staphylococcus aureus [17]) was 2 µM and the MHC10 [18] was 16 µM. The MIC (Staphylococcus aureus [19]) was 2 µM, the Activity (Lipopolysaccharide (LPS) [20]) was “Active” and the MHC10 [21] was 2 µM. For the same compound, the IC50 at 24 h [22] was 2450 nM, the MIC (Escherichia coli [23]) was 1 µM and the Activity (Lipopolysaccharide (LPS) [24]) was “Active”. The MIC (Salmonella typhimurium [25]) was 2 µM and the MIC (Pseudomonas aeruginosa [26]) was 1 µM.

With `CC[C@H](C)[C@H](NC(=O)CN)C(=O)NCC(=O)N[C@@H](C)C(=O)N[C@H](C(=O)N[C@@H](CC(C)C)C(=O)N[C@@H](CCCCN)C(=O)N[C@H](C(=O)N[C@@H](CC(C)C)C(=O)N[C@H](C(=O)N[C@H](C(=O)NCC(=O)N[C@@H](CC(C)C)C(=O)N1CCC[C@H]1C(=O)N[C@@H](C)C(=O)N[C@@H](CC(C)C)C(=O)N[C@H](C(=O)N[C@@H](CO)C(=O)N[C@@H](Cc1c[nH]c2ccccc12)C(=O)N[C@H](C(=O)N[C@@H](CCCCN)C(=O)N[C@@H](CCCNC(=N)N)C(=O)N[C@@H](CCCCN)C(=O)N[C@@H](CCCNC(=N)N)C(=O)N[C@@H](CCC(N)=O)C(=O)N[C@@H](CCC(N)=O)C(N)=O)[C@@H](C)CC)[C@@H](C)CC)[C@@H](C)O)[C@@H](C)O)C(C)C)C(C)C` [MELITTIN] the IC50 at 24 h [1] was 1300 nM, the selectivity ratio [10] was 0.5 and the Activity (Pseudomonas aeruginosa [27]) was “inactive”. The Activity (Pseudomonas aeruginosa [28]) was “inactive”, the Activity (Pseudomonas aeruginosa [29]) was “inactive” and the MHC10 [18] was 4 µM. The Activity (Pseudomonas aeruginosa [30]) was “inactive”, the MHC10 [21] was 2 µM and the Activity (Pseudomonas aeruginosa [31]) was “inactive”. For the same compound, the IC50 at 24 h [22] was 1940 nM.
